Compound: C1COCCN1CC2=CC(=O)C(=CO2)OCCCCCSC3=C4C=CC(=CC4=NC=C3)C(F)(F)F [EHT 1864]
Assay: relative viability (nuclei count vs DMSO), 5 days (fraction); higher = more cells survive
Procedure, shortened: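 Five library-drug doses spaced by √10 were pinned onto vehicle-anchored 1536-well plates of lung cancer cell lines that had been kept overnight at 37 °C. Cells went 5 days without medium change, then were fixed, permeabilised and Hoechst-stained together, imaged at 4× and counted by MetaXpress. Viability is the ratio of treated-well to vehicle-well nuclei, taken as a median over plates. Plates required control CV below 25% and at least one doubling.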

Cell Line | relative viability (0.04 µM) | relative viability (0.1265 µM) | relative viability (0.4 µM) | relative viability (1.265 µM) | relative viability (4 µM)
201T | 0.97 | 0.92 | 1.02 | 0.974 | 0.913
A-427 | 0.975 | 0.922 | 1.03 | 0.956 | 0.882
ABC-1 | 1.13 | 0.964 | 0.946 | 0.7 | 0.627
BEN | 0.864 | 0.812 | 1.05 | 0.871 | 0.967
CAL-12T | 1.02 | 0.902 | 0.991 | 0.963 | 0.887
COR-L23 | 0.964 | 0.885 | 0.956 | 0.971 | 0.824
COR-L 105 | 0.893 | 0.869 | 1.05 | 0.975 | 0.945
Calu-6 | 1 | 0.93 | 1.01 | 0.991 | 0.955
ChaGo-K-1 | 1.02 | 0.976 | 0.996 | 0.95 | 0.992
EKVX | 0.96 | 0.931 | 0.946 | 0.962 | 0.968
EMC-BAC-2 | 1.02 | 0.896 | 1.04 | 0.993 | 0.971
EPLC-272H | 1.04 | 0.952 | 0.926 | 1.04 | 1.03
H3255 | 0.903 | 0.82 | 0.963 | 0.946 | 1.01
HARA | 0.962 | 0.782 | 1.1 | 1.14 | 1.05
HCC-15 | 1.03 |  | 0.976 | 0.941 | 1
HCC-44 | 0.987 | 0.867 | 0.97 | 0.935 | 0.974
HCC-78 | 0.968 | 0.907 | 0.923 | 0.922 | 1.13
HCC-366 | 1.01 | 0.804 | 1.01 | 1.07 | 1.06
HCC-827 | 1.03 | 0.821 | 1.07 | 0.99 | 1.02
HOP-62 | 1.05 |  | 1 | 1.04 | 1.07
IA-LM | 0.925 |  | 0.908 | 0.764 | 0.855
LC-2-ad | 0.966 | 0.716 | 1.03 | 0.946 | 0.934
LCLC-97TM1 | 1.01 | 0.762 | 1.01 | 0.881 | 0.903
LCLC-103H | 0.987 | 0.903 | 1.01 | 1.12 | 1.02
LK-2 | 1.04 | 0.793 | 0.979 | 1.04 | 0.929
LOU-NH91 | 0.973 | 0.909 | 1.05 | 1.04 | 0.892

Cell Line | relative viability (0.04 µM) | relative viability (0.1265 µM) | relative viability (0.4 µM) | relative viability (1.265 µM) | relative viability (4 µM)
LU99A | 0.883 | 0.758 | 0.968 | 1 | 0.893
LXF-289 | 0.961 | 0.932 | 0.95 | 0.961 | 0.886
NCI-H23 | 0.909 | 0.696 | 0.912 | 1.02 | 1.03
NCI-H322M | 0.95 | 0.921 | 0.942 | 1.05 | 0.923
NCI-H358 | 0.888 | 0.834 | 1.06 | 0.939 | 0.933
NCI-H441 | 1.03 | 0.747 | 0.941 | 1.12 | 1.17
NCI-H460 | 1.01 | 0.921 | 0.966 | 0.965 | 0.857
NCI-H520 | 0.885 | 0.889 | 0.889 | 1.04 | 1.02
NCI-H522 | 0.845 | 0.939 | 0.996 | 1 | 0.855
NCI-H596 | 0.947 | 0.829 | 1.02 | 0.929 | 0.991
NCI-H647 | 1.01 | 0.775 | 1.03 | 1.02 | 0.908
NCI-H650 | 0.894 | 0.846 | 0.968 | 1.01 | 1.03
NCI-H661 | 1.01 | 1.01 | 0.975 | 0.941 | 0.926
NCI-H727 | 0.924 | 0.909 | 0.936 | 0.979 | 0.946
NCI-H838 | 0.915 | 0.851 | 0.99 | 1.01 | 1
NCI-H1355 | 0.949 | 0.732 | 0.965 | 0.984 | 0.987
NCI-H1395 | 0.933 | 0.752 | 1.01 | 0.86 | 0.861
NCI-H1437 | 1.05 | 0.94 | 0.936 | 0.839 | 0.762
NCI-H1563 | 0.992 | 0.887 | 0.959 | 0.896 | 0.882
NCI-H1648 | 1.2 | 0.735 | 0.954 | 1.02 | 1.43
NCI-H1650 | 0.892 | 0.676 | 0.907 | 0.826 | 0.754
NCI-H1651 | 0.944 | 0.958 | 0.918 | 0.949 | 0.98
NCI-H1666 | 1.05 | 0.879 | 0.957 | 0.916 | 1.08
NCI-H1703 | 0.929 | 0.707 | 0.939 | 0.776 | 0.657
NCI-H1734 | 1.07 | 0.702 | 1.03 | 1.09 | 0.906
NCI-H1755 | 0.989 | 0.955 | 0.927 | 0.979 | 0.938

Cell Line | relative viability (0.04 µM) | relative viability (0.1265 µM) | relative viability (0.4 µM) | relative viability (1.265 µM) | relative viability (4 µM)
NCI-H1792 | 0.906 |  | 0.723 | 0.988 | 1
NCI-H1793 | 0.729 | 0.781 | 0.929 | 0.928 | 0.963
NCI-H1915 | 0.964 |  | 1.01 | 0.98 | 0.92
NCI-H1944 | 1.09 |  | 1 | 1.01 | 0.879
NCI-H1975 | 0.886 | 0.954 | 0.887 | 0.841 | 0.895
NCI-H1993 | 0.965 |  | 0.957 | 1.03 | 0.873
NCI-H2009 | 0.971 | 0.945 | 1.03 | 0.906 | 0.877
NCI-H2023 | 0.944 | 0.817 | 0.893 | 0.925 | 0.939
NCI-H2085 | 0.988 | 0.897 | 0.987 | 1.01 | 0.903
NCI-H2087 | 1.12 |  | 0.956 | 0.832 | 0.942
NCI-H2126 | 0.983 | 0.914 | 0.986 | 0.985 | 0.999
NCI-H2170 | 0.904 | 0.889 | 0.996 | 1.06 | 1.01
NCI-H2228 | 0.974 | 0.876 | 0.934 | 0.776 | 1
NCI-H2342 | 0.778 | 0.856 | 0.803 | 0.929 | 1.03
NCI-H2347 | 1.07 | 0.75 | 1.01 | 0.966 | 1.03
NCI-H2405 | 1.07 | 1 | 0.994 | 0.821 | 0.994
NCI-H3122 | 0.99 | 0.98 | 0.994 | 0.999 | 0.945
PC-3 [JPC-3] | 1.1 | 0.908 | 1.02 | 1.05 | 0.953
PC-14 | 1.01 | 0.823 | 1.04 | 1.03 | 0.939
RERF-LC-KJ | 1.02 | 0.928 | 0.936 | 0.994 | 0.956
SK-LU-1 | 1.07 | 0.93 | 1.01 | 0.993 | 0.939
SK-MES-1 | 0.97 | 0.943 | 1.02 | 0.967 | 0.974
SW 900 | 0.942 |  | 0.929 | 0.929 | 0.782
SW 1573 | 1.03 | 0.817 | 1.01 | 0.931 | 0.902
UMC-11 | 1 | 0.804 | 0.901 | 0.985 | 1.17

Reference: the supplement of paper PMC10307832
